Experimental data taken from patent EP4755886A1 (Chengdu Chipscreen Pharmaceutical Ltd., priority 2023, dated 2025).

Experiments:
[1] = PK experiment in rats; assay type: in vivo; settings: rat; SD male rats, PO 10 mg/kg, vehicle 0.5% MC/0.2% Tween 80, plasma
Description: The samples were analyzed by LC-MS/MS. […] Table 6. Pharmacokinetic parameters for rats

[2] = PK experiment in mice; settings: mouse, plasma, po, 10 mg/kg
Description: Experimental materials: the experimental animals were healthy adult female BALB/c mice (provided by Sichuan Vital River Laboratory Animal Technology Co., Ltd.).
Administration mode and sample collection in mice: BALB/c female mice received oral intragastrical administration (10 mg/kg, vehicle: 0.5% methylcellulose/0.2% Tween 80), and 60 µL of whole blood from the venous plexus of the fundus of the mice at different time points was collected at 0.25 h, 0.5 h, 1 h, 2 h, 4 h, 6 h, 8 h, and 24 h after administration and centrifuged at 4000 rpm for 6 min to collect plasma.
10 µL of mouse plasma sample was added to 190 µL of acetonitrile solution containing an internal standard to precipitate protein. The mixture was vortexed for 10 min and centrifuged at 4000 rpm for 10 min. The supernatant was collected and added to a 96-well plate. The samples were analyzed by LC-MS/MS. The drug concentrations in the plasma of mice at different time points after intragastric administration of the example compounds were measured by an LC-MS/MS method, and the related pharmacokinetic parameters were calculated, such that the pharmacokinetic behavior of the compounds in the mice was studied, and the pharmacokinetic characteristics were evaluated.

[3] = system: MTAP^-/- HCT-116 cells; test: Cell proliferation (MTS), MTAP-/- HCT-116; assay type: cell-based, human; settings: for Selectivity: HCT116 WT IC50 relative to HCT116 MTAP-/- IC50; for IC50: Homo sapiens, 240 h, MTAP-/- HCT-116, 10 days with compound, MTS reading, read-out: IC50 HCT116 MTAP-/-
Outline: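 MTAP-/- (CRISPR/Cas9 biallelic knockout) or wild-type HCT-116 cells seeded at 100 cells/well, treated next day with 8-point 3-fold dilutions (top 20 µM) for 10 days at 37 °C, 5% CO2. Viability read by MTS; IC50 from four-parameter logistic fit of inhibition rate vs log concentration.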

[4] = system: human large cell lung cancer cell line LU99; test: Efficacy in LU99 xenograft mouse model; assay type: in vivo, Balb/c nude mice; settings: PO, qd, 28 days
Description: The human large cell lung cancer cell line LU99 was purchased from Nanjing Cobioer Biosciences Co., Ltd. (CBP61512) and cultured in RPMI-1640 medium (Gibco) containing 10% fetal bovine serum (Gibco); the test substances were prepared into suspensions at concentrations of 0.3 mg/mL, 1 mg/mL, and 5 mg/mL using a 0.5% aqueous MC solution containing 0.2% Tween 80. Reference Example 6 (MRTX1719) was prepared into a 5 mg/mL clear solution using 40% PEG400 normal saline containing 2% DMSO.
LU99 cells in the logarithmic growth phase were digested, collected, and counted, and the cell density was adjusted to 2 × 10^7 cells/mL using a 1:1 serum-free medium and matrigel (Corning). 18-20 g of Balb/c nude mice (Beijing Huafukang Biotechnology Co., Ltd.) were inoculated subcutaneously with 100 µL of cell suspension per mouse. On day 12 after inoculation, animals with a mean tumor volume of 116 mm^3 were randomly grouped, with 7 animals in each group. The test substances were intragastrically administered at 3 mg/kg, 10 mg/kg, and 50 mg/kg once daily, and MRTX1719 was intragastrically administered at 50 mg/kg once daily. A vehicle (2% DMSO + 40% PEG400 + 58% normal saline) was intragastrically administered to the blank group at a dose of 10 mL/kg once daily. Administration was performed for 28 days in total.
After the animals were inoculated with LU99 cells, the tumor volume was measured 2-3 times a week, and the tumor volume was calculated based on length × width^2 × 0.5. On the day when the last administration was completed, except for the mice with tumor regression, which were subjected to discontinuation observation, the remaining mice were euthanized.
In the formula, VTt represents the tumor volume of the treatment group at each measurement, and VT0 represents the tumor volume measured when the treatment group is grouped; VCt represents the tumor volume of the model control group at each measurement, and VC0 represents the tumor volume measured when the model control group is grouped.
Data were analyzed using GraphPad Prism 9.0 software and expressed as Mean ± SEM (standard error). Pairwise comparisons between each administration group and the model control group were performed using one-way analysis of variance (ANOVA). Variance homogeneity was determined using the Brown-Forsythe method, and variance heterogeneity was determined using the Dunnett's T3 method. Table 8. Efficacy evaluation in LU99 xenograft mouse model

[5] = Human liver microsome stability; assay type: in vitro ADME; settings: pH 7.4; human liver microsomes 0.5 mg/mL, compound 1 µM, NADPH 1 mM, 37 °C
Description: Experimental materials: human liver microsomes (purchased from BIOIVT);
PBS: 0.1 M KH2PO4 and K2HPO4 buffers, pH 7.4.
MgCl2: a certain amount of MgCl2 was weighed out and prepared into a 16 mM MgCl2 solution with PBS.
NADPH (Chinese name: reduced nicotinamide adenine dinucleotide phosphate, purchased from Sigma, Cat. No.: 481973-500 mg): a certain amount of NADPH was weighed out and a 4 mM solution of NADPH was prepared with a 16 mM MgCl2 solution, and the final incubation concentration was 1 mM.
Compounds: 4 µM solutions of the test compounds and positive compounds were prepared with PBS, and the final incubation concentration was 1 µM.
Liver microsomes (purchased from BIOIVT, Cat. No.: X008070): the liver microsomes were diluted to […] with PBS, and the final incubation concentration was 0.5 mg/mL.
The prepared test compound or positive compound was added to a test tube, and then the prepared NADPH was added. The mixture was mixed well. The mixture was pre-incubated in a thermostat incubator at 220 rpm at 37 °C for 5 min, and the prepared liver microsomes were added to start the reaction. All steps were performed in replicate wells. At 0 min, 15 min, 30 min, 45 min, and 60 min, a certain volume of glacial acetonitrile solution containing an internal standard was added to the corresponding tube to precipitate the protein. The mixture was vortexed for 5 min with shaking, and then centrifuged at 4000 rpm for 10 min. […] The samples were analyzed by LC-MS/MS.
The concentrations (peak area ratios) of the example compounds were determined by LC-MS/MS. Rate constants were obtained by plotting "Ln (residual amount of compound %)" versus "incubation time" in Excel, thereby calculating the half-lives and intrinsic clearances of the drugs and providing a basis for the prediction of the in-vivo clearance.
[formula] CLH = CLint × fu × Qh /(CLint×fu+Qh) [formula]
Stability in human liver microsomes

Row | AUC(0-t) ([2]; female, BALB/c) | Cmax ([2]; female, BALB/c) | IC50 [3] | half-life at 1 µM [5] | Structure (SMILES) | AUC(0-t) [1] | Cmax [1] | Selectivity [3] | TGI ([4]; 3 mg/kg) | Tumor volume ([4]; 3 mg/kg) | TGI ([4]; 10 mg/kg) | Tumor volume ([4]; 10 mg/kg) | TGI ([4]; 50 mg/kg) | Tumor volume ([4]; 50 mg/kg) | AUC(0-t) [2] | Cmax [2]
1 | 32300 ± 3340 ng·h/mL | 3420 ± 913 ng/mL | 3.8 nM | 122 min | CN(C(=O)c1cc2c3c(c(N)nc2cc1Cl)COC3)[C@@H]1COc2cc(C#Cc3cnn(C4CC4)c3)ccc21 [Compound 43A, (S)-4-amino-7-chloro-N-(6-((1-cyclopropyl-1H-pyrazol-4-yl)ethynyl)-2,3-dihydrobenzofuran-3-yl)-N-methyl-1,3-dihydrofuro[3,4-c]quinoline-8-carboxamide] | 9650 ± 1170 ng·h/mL | 1220 ± 417 ng/mL | 170 | 83.27% | 415.58 mm^3 | 94.77% | 210.31 mm^3 | 104.92% | 28.13 mm^3 | – | –
2 | – | – | 2.4 nM | 49.9 min | Cc1nn(C)cc1C#Cc1ccc2c(c1)OC[C@H]2N(C)C(=O)c1cc2c3c(c(N)nc2cc1Cl)COC3 [Compound 50A, (S)-4-amino-7-chloro-N-(6-((1,3-dimethyl-1H-pyrazol-4-yl)ethynyl)-2,3-dihydrobenzofuran-3-yl)-N-methyl-1,3-dihydrofuro[3,4-c]quinoline-8-carboxamide] | – | – | 180 | – | – | – | – | – | – | – | –

Row | Structure (SMILES) | AUC(0-t) ([2]; female, BALB/c) | Cmax ([2]; female, BALB/c) | IC50 [3] | half-life at 1 µM [5] | AUC(0-t) [1] | Cmax [1] | Selectivity [3] | TGI ([4]; 3 mg/kg) | Tumor volume ([4]; 3 mg/kg) | TGI ([4]; 10 mg/kg) | Tumor volume ([4]; 10 mg/kg) | TGI ([4]; 50 mg/kg) | Tumor volume ([4]; 50 mg/kg) | AUC(0-t) [2] | Cmax [2]
3 | CN(C(=O)c1cc2c(cc1F)nc(N)c1cnn(C)c12)[C@@H]1COc2cc(C#Cc3cnn(C)c3)ccc21 [Compound 5A, (S)-4-amino-7-fluoro-N,1-dimethyl-N-(6-((1-methyl-1H-pyrazol-4-yl)ethynyl)-2,3-dihydrobenzofuran-3-yl)-1H-pyrazolo[4,3-c]quinoline-8-carboxamide] | – | – | 1.7 nM | 66.5 min | 15600 ± 4640 ng·h/mL | 2180 ± 777 ng/mL | – | 81.96% | 438.73 mm^3 | 95.20% | 202.05 mm^3 | 103.12% | 60.72 mm^3 | 15700 ± 1600 ng·h/mL | 2220 ± 230 ng/mL
